{"source": "patent US20170057917A1", "about": "“Polymorphs of Lomitapide and its Salts” (Hetero Research Foundation, priority 2014, published 2017)", "experiment": "Hygroscopicity of the amorphous form", "type": "physicochemical", "conditions": "solid amorphous form; normally amorphous Forms are hygroscopic", "data": [{"molecule": "CS(=O)(=O)O.O=C(NC1CCN(CCCCC2(C(=O)NCC(F)(F)F)c3ccccc3-c3ccccc32)CC1)c1ccccc1-c1ccc(C(F)(F)F)cc1", "note": "[Amorphous Lomitapide mesylate]", "values": [{"measurement": "hygroscopicity", "value": "non-hygroscopic"}]}]}
